Results published in publication PMC3424241, “The Octadecaneuropeptide ODN Protects Astrocytes against Hydrogen Peroxide-Induced Apoptosis via a PKA/MAPK-Dependent Mechanism” (PLoS ONE, 2012).

Experiments:
[1] = tested on: cultured rat astrocytes; experiment: Cell survival after H2O2, FDA fluorescence; format: cell-based
Procedure: Secondary cultures of rat cortical astrocytes were prepared as previously described [64]with minor modifications. Briefly, cerebral hemispheres from newborn Wistar rats were collected in DMEM/F12 (2∶1; v/v) culture medium supplemented with 2 mM L-glutamine, 1‰ insulin, 5 mM HEPES, 0.4% glucose and 1% of the antibiotic-antimycotic solution. The tissues were dissociated mechanically with a syringe equipped with a 1-mm gauge needle, and filtered through a 100-µm sieve (Falcon, Franklin Lakes, NJ, USA). […] When cultures were confluent, astrocytes were isolated by shaking overnight the flasks on an orbital agitator. Adhesive cells were detached by trypsination and preplated for 5 min to discard contaminating microglial cells. Then, the non-adhering astrocytes were harvested and plated on 35-mm hydrophilic surface Petri dishes at a density of 3×10^5 cells/ml. […] The cells were incubated at 37°C in a humid atmosphere (5% CO2). […] All experiments were performed on 5- to 7-day-old secondary cultures.
(§1) Cultured cells were incubated at 37°C with fresh serum-free culture medium in the absence or presence of H2O2 and/or ODN for 1 h. Cells were then incubated for 10 min at 37°C with 0.3 µg/ml calcein-AM (producing green fluorescence in living cells), rinsed twice with culture medium without probe and examined on an inverted microscope (Leica, Heidelberg, Germany) equipped with a double pass filter.
For quantification of surviving astrocytes, cells were incubated for 8 min with 15 µg/ml FDA-AM, rinsed twice with phosphate-buffered saline (PBS) and lysed with a Tris/HCl solution containing 1% sodium dodecyl sulfate (SDS). Fluorescence was measured with excitation at 485 nm and emission at 538 nm, using a microplate reader (Bio-Tek FLx 800).

[2] = tested on: cultured rat astrocytes; experiment: Living-cell staining and morphology with calcein-AM after H2O2; format: cell-based; details: ODN 0.1 nM pretreatment 10 min, then 1 h 300 µM H2O2; calcein-AM staining
Procedure: (§2) Secondary cultures of rat cortical astrocytes were prepared as previously described [64]with minor modifications. Briefly, cerebral hemispheres from newborn Wistar rats were collected in DMEM/F12 (2∶1; v/v) culture medium supplemented with 2 mM L-glutamine, 1‰ insulin, 5 mM HEPES, 0.4% glucose and 1% of the antibiotic-antimycotic solution. The tissues were dissociated mechanically with a syringe equipped with a 1-mm gauge needle, and filtered through a 100-µm sieve (Falcon, Franklin Lakes, NJ, USA). Dissociated cells were resuspended in culture medium supplemented with 10% FBS, plated in 175-cm^2 flasks (Greiner Bio-one GmbH, Frickenhausen, Germany) and incubated at 37°C in a 5% CO2/[…] atmosphere. When cultures were confluent, astrocytes were isolated by shaking overnight the flasks on an orbital agitator. Adhesive cells were detached by trypsination and preplated for 5 min to discard contaminating microglial cells. […]
as §1

[3] = tested on: cAMP formation in astroglial cells (adenylyl cyclase); experiment: cAMP production, radioimmunoassay; format: cell-based, rat; details: ODN 10 pM; 0.1 mM IBMX, 10 min incubation; p<0.001
Procedure: as §2, with “cells. Then, the non-adhering astrocytes were harvested and plated on 35-mm hydrophilic surface Petri dishes at a density of 3×10^5 cells/ml.” for “cells.”
Cultured cells were pre-incubated for 30 min in serum-free medium containing 0.1 mM IBMX to inhibit phosphodiesterases, and then incubated in the same solution, in the presence or absence of test substances. […] The concentration of cAMP was measured by using a cAMP RIA kit. […]

[4] = tested on: Bcl-2; experiment: Bcl-2 mRNA level, quantitative RT-PCR; format: cell-based, rat; details: ODN 0.1 nM
Procedure: as §2, with “cells. Then, the non-adhering astrocytes were harvested and plated on 35-mm hydrophilic surface Petri dishes at a density of 3×10^5 cells/ml.” for “cells.”
(§3) Cultured cells were incubated at 37°C for 1 h with fresh serum-free medium in the absence or presence of test substances. […] The amount of Bax and Bcl-2 cDNA in each sample was calculated by the comparative threshold cycle (Ct) method and expressed as 2^exp(−ΔΔCt) using glyceraldehyde-3-phosphate dehydrogenase as an internal control.

[5] = tested on: Bax; experiment: Bax mRNA level, quantitative RT-PCR; format: cell-based, rat; details: ODN 0.1 nM
Procedure: as §2, with “cells. Then, the non-adhering astrocytes were harvested and plated on 35-mm hydrophilic surface Petri dishes at a density of 3×10^5 cells/ml.” for “cells.”
as §3

[6] = tested on: glutathione (GSH) in cultured astrocytes; experiment: Intracellular glutathione content, mBCl fluorescence; format: cell-based, rat
Procedure: Secondary cultures of rat cortical astrocytes were prepared as previously described [64]with minor modifications. Briefly, cerebral hemispheres from newborn Wistar rats were collected in DMEM/F12 (2∶1; v/v) culture medium supplemented with 2 mM L-glutamine, 1‰ insulin, 5 mM HEPES, 0.4% glucose and 1% of the antibiotic-antimycotic solution. The tissues were dissociated mechanically with a syringe equipped with a 1-mm gauge needle, and filtered through a 100-µm sieve (Falcon, Franklin Lakes, NJ, USA). Dissociated cells were resuspended in culture medium supplemented with 10% FBS, plated in 175-cm^2 flasks (Greiner Bio-one GmbH, Frickenhausen, Germany) and incubated at 37°C in a 5% CO2/[…] atmosphere. When cultures were confluent, astrocytes were isolated by shaking overnight the flasks on an orbital agitator. Adhesive cells were detached by trypsination and preplated for 5 min to discard contaminating microglial cells. Then, the non-adhering astrocytes were harvested and plated on 35-mm hydrophilic surface Petri dishes at a density of 3×10^5 cells/ml. For measurement of cell survival, caspase-3 activity and mitochondrial activity, cells were plated in hydrophilic surface 24-well plates at a density of 8×10^4 cells/ml. The cells were incubated at 37°C in a humid atmosphere (5% CO2). After 5 days (DIV5), more than 99% of the cells were labeled with antibodies against glial fibrillary acidic protein [65]. All experiments were performed on 5- to 7-day-old secondary cultures.
Reduced GSH was measured by using the thiol-reactive probe mBCl. At the end of the treatment period, the culture medium was removed and the cells were incubated with the mBCl probe (40 µM) at 37°C for 30 min and then washed twice with PBS. Fluorescence intensity was measured with excitation at 360 nm and emission at 485 nm, using a microplate reader (Bio-Tek FLx 800).

[7] = tested on: cultured rat astrocytes; details: ODN 0.1 nM, 300 µM H2O2; cited from earlier work
Procedure: In order to determine the receptor involved in the protective effect of ODN, we have first examined the dose- and the time-course effect of the peptide on detrimental action of H2O2. The protective action of ODN was concentration-dependent for doses ranging from 1 fM to 0.1 nM (Figure 1A). […] The protectiv ...

[8] = 10 min pre-incubation, 1 h 300 µM H2O2

## ODN: octadecaneuropeptide, endozepine derived from diazepam-binding inhibitor; endogenous ligand of central-type benzodiazepine and metabotropic receptors; synthesized by Fmoc procedure (QATVGDVNTDRPGLLDLK; Octadecaneuropeptide; UniProt P11030 34-51, looked up)
[1]; ODN 0.1 nM, 300 µM H2O2, FDA fluorescence
  time-course of protection against H2O2-induced cell injury: totally blocked H2O2-induced cell injury during the first 60 min
[1]; ODN 0.1 nM, refills of 0.1 nM after 30, 60, 90, 120 and 150 min, 300 µM H2O2
  duration of the protective effect with fresh doses of peptide: ≥ 150 min
[1]; ODN 0.1 nM, 10 min pre-incubation, 1 h 300 µM H2O2, FDA fluorescence
  maximum effect (survival): ~95%
[1]; single dose of ODN 0.1 nM, 300 µM H2O2
  time after onset of peptide administration at which the protective action vanished: 180 min
[1]; time-course, ODN 0.1 nM, 300 µM H2O2
  delay of H2O2-induced cell death: approximately 1 h
[2]
  effect on H2O2-induced morphological changes and loss of calcein labeling: totally prevented the deleterious effects of H2O2
[3]
  maximum stimulation of cAMP formation: 179 % over control
[4]; [8]
  effect on H2O2-induced inhibition of Bcl-2 expression: suppressed the inhibitory effect of H2O2 on Bcl-2 expression
[4]; 1 h, RT-PCR, 6 wells from three cultures
  effect on Bcl-2 mRNA levels, peptide alone: induced an increase of Bcl-2 mRNA levels by itself
[5]; [8]
  effect on H2O2-induced increase of Bax mRNA levels: totally prevented the increase of Bax mRNA levels induced by H2O2
[5]; 1 h, RT-PCR
  effect on Bax mRNA levels, peptide alone: had no effect on Bax mRNA levels
[6]; ODN 0.1 nM pretreatment, 1 h 300 µM H2O2
  effect on H2O2-induced depletion of GSH (mBCl fluorescence): prevented the depletion of mBCl fluorescence induced by H2O2
[6]; graded ODN 1 fM to 0.1 nM, 1 h
  effect on intracellular GSH content (mBCl fluorescence), peptide alone: dose-related increase in mBCl fluorescence intensity
[7]
  effect on H2O2-induced astrocyte cell death: able to reverse the effect of 300 µM H2O2-induced astrocyte cell death
